Assay [1] addresses T1, monoacylglycerol lipase (MAGL) (Homo sapiens, UniProt Q99685).
T1 construct: gene MGLL
T1 sequence (Q99685 1-303): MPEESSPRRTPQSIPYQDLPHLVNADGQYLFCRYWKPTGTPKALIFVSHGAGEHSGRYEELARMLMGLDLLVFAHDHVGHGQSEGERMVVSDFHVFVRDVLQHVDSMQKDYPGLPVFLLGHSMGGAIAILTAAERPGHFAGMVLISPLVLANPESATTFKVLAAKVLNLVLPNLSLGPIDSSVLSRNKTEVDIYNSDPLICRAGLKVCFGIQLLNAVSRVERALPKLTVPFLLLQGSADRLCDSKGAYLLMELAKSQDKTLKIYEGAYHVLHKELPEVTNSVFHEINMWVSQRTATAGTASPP
The assay can be described thus: hydrolysis by kit MAGL, arachidonic acid product by HPLC-MS/MS. The format is biochemical. On the procedure: hydrolysis by kit MAGL, arachidonic acid product by HPLC-MS/MS on monoacylglycerol lipase (MAGL) | natural substrate 2-AG, which is hydrolyzed by MAGL to glycerol and AA. AA concentrations were determined using HPLC-MS/MS

The target of assay [2] is T1, monoacylglycerol lipase (MAGL). Nature of the assay: modified Cayman MAGL inhibitor kit, 2-AG hydrolysis to arachidonic acid by HPLC-MS/MS. The format is biochemical.

pIC50: −log10 of the molar value.

Turning to `CCCCC/C=C\C/C=C\C/C=C\C/C=C\CCCC(=O)OC(CO)CO` [2-AG, 2-arachidonoylglycerol], the “hydrolysis by kit MAGL, arachidonic acid product by HPLC-MS/MS” value in assay [1] is “natural substrate 2-AG, which is hydrolyzed by MAGL to glycerol and AA. AA concentrations were determined using HPLC-MS/MS”. Broadly, the pIC50 is the IC50 on a negative log10 scale, so that one unit is a factor of ten. Higher therefore signals a low IC50. `C=C1CC/C=C(\C)CC[C@@H]2[C@@H]1CC2(C)C` [BCP, β-Caryophyllene] showed a pIC50 in assay [2] of 4.80.

Values taken from article PMC10794982, “β-Caryophyllene Inhibits Monoacylglycerol Lipase Activity and Increases 2-Arachidonoyl Glycerol Levels In Vivo: A New Mechanism of Endocannabinoid-Mediated Analgesia?” (Molecular Pharmacology, 2024).
